Assay [1] concerns the target human CB1 receptor (hCB1) (Homo sapiens, UniProt P21554). Nature of the assay: cell-based. The assay is classed as cell-based. Put shortly: (§1)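 Readout: LANCE TR-FRET cAMP, back-calculated from a concurrent standard curve and scaled between forskolin-only and forskolin + 1 μM CP55,940 wells. EC50 and intrinsic activity came from four-parameter fits.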
For another assay, the target named is T1, rat CB2 receptor (rCB2) (Rattus norvegicus, UniProt Q9QZN9).
T1 sequence (Q9QZN9 1-360): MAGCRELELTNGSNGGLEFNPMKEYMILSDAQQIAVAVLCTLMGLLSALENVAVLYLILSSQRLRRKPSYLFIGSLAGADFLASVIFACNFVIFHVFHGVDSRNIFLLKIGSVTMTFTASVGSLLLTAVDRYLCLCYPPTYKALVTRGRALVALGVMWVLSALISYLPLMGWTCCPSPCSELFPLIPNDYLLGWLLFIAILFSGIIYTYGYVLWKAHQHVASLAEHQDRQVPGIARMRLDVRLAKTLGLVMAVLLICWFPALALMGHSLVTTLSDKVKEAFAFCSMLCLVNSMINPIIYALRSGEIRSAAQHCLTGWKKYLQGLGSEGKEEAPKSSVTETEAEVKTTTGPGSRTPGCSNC
Nature of the assay: cell-based. The class given is cell-based. The following applies: for +/− RCB2: agonist or inverse agonist at rCB2. Put shortly: as §1

[2] abbreviates: groups >100 nM-10 μM and >10 μM, cAMP, CHO-K1 hCB1, read-out: EC50 HCB1.
The mark [3] stands for this setting: groups >100 nM-10 μM and >10 μM, cAMP, CHO-K1 rCB2, read-out: EC50 RCB2.

Like-named read-outs stand apart in the source and are kept apart here.

Chain of human CB1 receptor (hCB1) (P21554 whole entry): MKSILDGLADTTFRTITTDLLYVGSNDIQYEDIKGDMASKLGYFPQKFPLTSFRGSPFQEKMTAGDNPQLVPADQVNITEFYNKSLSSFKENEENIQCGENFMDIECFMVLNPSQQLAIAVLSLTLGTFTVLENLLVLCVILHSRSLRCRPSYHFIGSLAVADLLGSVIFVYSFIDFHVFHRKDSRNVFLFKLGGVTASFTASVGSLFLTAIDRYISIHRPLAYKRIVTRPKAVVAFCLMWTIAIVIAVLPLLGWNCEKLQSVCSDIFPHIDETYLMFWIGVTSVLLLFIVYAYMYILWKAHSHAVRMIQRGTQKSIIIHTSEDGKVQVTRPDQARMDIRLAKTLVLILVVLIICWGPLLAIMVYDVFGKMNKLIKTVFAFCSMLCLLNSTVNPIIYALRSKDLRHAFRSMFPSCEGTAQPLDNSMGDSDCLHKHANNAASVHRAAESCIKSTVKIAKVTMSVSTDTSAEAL

The EC50 is the concentration at which the effect is half-maximal. `CNC(=O)[C@@H](NC(=O)c1nc(-c2ccccc2)n2c1CN(C)CC2)C(C)(C)C` [Compound 48, (S)-N-(3,3-dimethyl-1-(methylamino)-1-oxobutan-2-yl)-7-methyl-3-phenyl-5,6,7,8-tetrahydroimidazo[1,5-a]pyrazine-1-carboxamide] displayed an EC50 in assay [1] of over 10000 nM. On rat CB2 receptor (rCB2), the “+/− RCB2” value was “+”.

Compound `CNC(=O)[C@@H](NC(=O)c1nc(-c2ccc(Cl)cc2)n2c1CN(C)CC2)C(C)(C)C` [Compound 49, (S)-3-(4-chlorophenyl)-N-(3,3-dimethyl-1-(methylamino)-1-oxobutan-2-yl)-7-methyl-5,6,7,8-tetrahydroimidazo[1,5-a]pyrazine-1-carboxamide] yielded an EC50 in assay [1] of over 10000 nM. The “+/− RCB2” value on rat CB2 receptor (rCB2) was “−”.

Take `C[C@@H](NC(=O)c1nc(-c2ccccc2)n2c1CN(C)CC2)C(C)(C)C` [Compound 50, (R)-N-(3,3-dimethylbutan-2-yl)-7-methyl-3-phenyl-5,6,7,8-tetrahydroimidazo[1,5-a]pyrazine-1-carboxamide]: the EC50 (in assay [1] (setting [2]); at rat CB2 receptor (rCB2) (setting [3])) was over 10000 nM each time.

With `C[C@H](NC(=O)c1nc(-c2ccccc2)n2c1CN(C)CC2)C(C)(C)C` [Compound 51, (S)-N-(3,3-dimethylbutan-2-yl)-7-methyl-3-phenyl-5,6,7,8-tetrahydroimidazo[1,5-a]pyrazine-1-carboxamide], the concentration for a half-maximal effect (EC50) (in assay [1] (setting [2]); on rat CB2 receptor (rCB2) (setting [3])) was over 10000 nM each time.

`CC(C)CN1CCn2c(-c3ccccc3)nc(C(=O)N[C@H](C)C(C)(C)C)c2C1` [Compound 52, (R)-N-(3,3-dimethylbutan-2-yl)-7-isobutyl-3-phenyl-5,6,7,8-tetrahydroimidazo[1,5-a]pyrazine-1-carboxamide] came in with a half-maximal effective concentration (EC50) in assay [1] of over 10000 nM. Also, the “+/− RCB2” value on rat CB2 receptor (rCB2) was “−”.

Regarding `CC(C)CN1CCn2c(-c3ccccc3)nc(C(=O)N[C@@H](C)C(C)(C)C)c2C1` [Compound 53, (S)-N-(3,3-dimethylbutan-2-yl)-7-isobutyl-3-phenyl-5,6,7,8-tetrahydroimidazo[1,5-a]pyrazine-1-carboxamide], the EC50 in assay [1] is over 10000 nM. Moreover, the “+/− RCB2” value on rat CB2 receptor (rCB2) is recorded as “−”.

`CNC(=O)[C@@H](NC(=O)c1nc(-c2ccccc2)n2c1CN(CCC(C)(C)C)CC2)C(C)(C)C` [Compound 54, (S)-N-(3,3-dimethyl-1-(methylamino)-1-oxobutan-2-yl)-7-(3,3-dimethylbutan)-3-phenyl-5,6,7,8-tetrahydroimidazo[1,5-a]pyrazine-1-carboxamide] came in with an EC50 in assay [1] of over 10000 nM. Also, the “+/− RCB2” value at rat CB2 receptor (rCB2) is “−”.

In assay [1], `CNC(=O)[C@@H](NC(=O)c1nc(-c2ccccc2)n2c1CN(CC(C)(C)C)CC2)C(C)(C)C` [Compound 55, (S)-N-(3,3-dimethyl-1-(methylamino)-1-oxobutan-2-yl)-7-neopentyl-3-phenyl-5,6,7,8-tetrahydroimidazo[1,5-a]pyrazine-1-carboxamide] showed an EC50 of over 10000 nM. Besides, the “+/− RCB2” value at rat CB2 receptor (rCB2) is “−”.

`CNC(=O)[C@@H](NC(=O)c1nc(-c2ccccc2)n2c1CN(CC1CC1)CC2)C(C)(C)C` [Compound 56, (S)-7-(cyclopropylmethyl)-N-(3,3-dimethyl-1-(methylamino)-1-oxobutan-2-yl)-3-phenyl-5,6,7,8-tetrahydroimidazo[1,5-a]pyrazine-1-carboxamide]: in assay [1], the EC50 is over 10000 nM. For the same compound, the “+/− RCB2” value on rat CB2 receptor (rCB2) is “−”.

`CN1CCn2c(-c3ccccc3)nc(C(=O)NCC(C)(C)C)c2C1` [Compound 57, 7-methyl-N-neopentyl-3-phenyl-5,6,7,8-tetrahydroimidazo[1,5-a]pyrazine-1-carboxamide]: the EC50 (in assay [1]; on rat CB2 receptor (rCB2)) was over 10000 nM throughout.

The compound `CC(C)CN1CCn2c(-c3ccccc3)nc(C(=O)NCC(C)(C)C)c2C1` [Compound 58, 7-isobutyl-N-neopentyl-3-phenyl-5,6,7,8-tetrahydroimidazo[1,5-a]pyrazine-1-carboxamide] gave an EC50 in assay [1] of over 10000 nM. Further, the “+/− RCB2” value on rat CB2 receptor (rCB2) is recorded as “−”.

On to `CN1CCn2c(-c3ccccc3)nc(C(=O)N[C@H](CO)C(C)(C)C)c2C1` [Compound 59, (S)-N-(1-hydroxy-3,3-dimethylbutan-2-yl)-7-methyl-3-phenyl-5,6,7,8-tetrahydroimidazo[1,5-a]pyrazine-1-carboxamide], for which the EC50 (in assay [1]; at rat CB2 receptor (rCB2)) was over 10000 nM throughout.

Regarding `CC(C)CN1CCn2c(-c3ccccc3)nc(C(=O)N[C@H](CO)C(C)(C)C)c2C1` [Compound 60, (S)-N-(1-hydroxy-3,3-dimethylbutan-2-yl)-7-isobutyl-3-phenyl-5,6,7,8-tetrahydroimidazo[1,5-a]pyrazine-1-carboxamide], the EC50 in assay [1] is over 10000 nM. Also, the “+/− RCB2” value at rat CB2 receptor (rCB2) was “−”.

`CNC(=O)[C@@H](NC(=O)c1nc(-c2ccccc2)n2c1CN(Cc1ccccc1)CC2)C(C)(C)C` [Compound 61, (S)-7-benzyl-N-(3,3-dimethyl-1-(methylamino)-1-oxobutan-2-yl)-3-phenyl-5,6,7,8-tetrahydroimidazo[1,5-a]pyrazine-1-carboxamide]: the EC50 (in assay [1]; on rat CB2 receptor (rCB2)) was over 10000 nM throughout.

On to `CNC(=O)[C@@H](NC(=O)c1nc(-c2ccccc2)n2c1CN(Cc1cncnc1)CC2)C(C)(C)C` [Compound 62, (S)-N-(3,3-dimethyl-1-(methylamino)-1-oxobutan-2-yl)-3-phenyl-7-(pyrimidin-5-ylmethyl)-5,6,7,8-tetrahydroimidazo[1,5-a]pyrazine-1-carboxamide], for which the EC50 in assay [1] was over 10000 nM. Moreover, the “+/− RCB2” value on rat CB2 receptor (rCB2) is “−”.

For `CNC(=O)[C@@H](NC(=O)c1nc(-c2ccccc2)n2c1CN(Cc1cccnc1)CC2)C(C)(C)C` [Compound 63, (S)-N-(3,3-dimethyl-1-(methylamino)-1-oxobutan-2-yl)-3-phenyl-7-(pyridin-3-ylmethyl)-5,6,7,8-tetrahydroimidazo[1,5-a]pyrazine-1-carboxamide], the 50% effective concentration (EC50) (in assay [1]; on rat CB2 receptor (rCB2)) was over 10000 nM in each case.

For `CNC(=O)[C@@H](NC(=O)c1nc(-c2ccccc2)n2c1CN(Cc1ccco1)CC2)C(C)(C)C` [Compound 64, (S)-N-(3,3-dimethyl-1-(methylamino)-1-oxobutan-2-yl)-7-(furan-2-ylmethyl)-3-phenyl-5,6,7,8-tetrahydroimidazo[1,5-a]pyrazine-1-carboxamide], the EC50 in assay [1] was over 10000 nM. For the same compound, the “+/− RCB2” value at rat CB2 receptor (rCB2) is “−”.

Regarding `CNC(=O)[C@@H](NC(=O)c1nc(-c2ccccc2)n2c1CN(Cc1ccnn1C)CC2)C(C)(C)C` [Compound 65, (S)-N-(3,3-dimethyl-1-(methylamino)-1-oxobutan-2-yl)-7-((1-methyl-1H-pyrazol-5-yl)methyl)-3-phenyl-5,6,7,8-tetrahydroimidazo[1,5-a]pyrazine-1-carboxamide], the concentration giving a half-maximal response (EC50) (in assay [1]; on rat CB2 receptor (rCB2)) was over 10000 nM throughout.

Compound `CNC(=O)[C@@H](NC(=O)c1nc(-c2ccccc2)n2c1CN(Cc1cnn(C)c1)CC2)C(C)(C)C` [Compound 66, (S)-N-(3,3-dimethyl-1-(methylamino)-1-oxobutan-2-yl)-7-((1-methyl-1H-pyrazol-4-yl)methyl)-3-phenyl-5,6,7,8-tetrahydroimidazo[1,5-a]pyrazine-1-carboxamide] had an EC50 in assay [1] of over 10000 nM. The “+/− RCB2” value at rat CB2 receptor (rCB2) is recorded as “+”.

Regarding `CN1CCn2c(-c3ccccc3)nc(C(=O)N[C@@H](CO)C(C)(C)C)c2C1` [Compound 67, (R)-N-(1-hydroxy-3,3-dimethylbutan-2-yl)-7-methyl-3-phenyl-5,6,7,8-tetrahydroimidazo[1,5-a]pyrazine-1-carboxamide], the EC50 (in assay [1]; on rat CB2 receptor (rCB2)) was over 10000 nM in each case.

The values above are taken from US7517874B2 (priority 2007, dated 2009).
